In patent US10822325B2, “Human GLUT5 specific inhibitors and methods of treatment” (UNM RAINFOREST INNOVATIONS, priority 2015, dated 2020):
“Also recorded” adds a separate entry of the source.

Key:
[1] = biological target: T1, GLUT5H387F (Homo sapiens, UniProt P22732, H387F); assay: Fructose entrance counter-flow transport in GLUT5H387F mutant proteoliposomes; type: biochemical; details: 2 mM compound
T1 construct: Full length DNA was subcloned into pFastBac1 (Life Technologies) vector with a N-terminal hexahistidine tag; hexahistidine (N); made in house; host or cells: Sf21 insect cells (baculovirus, pFastBac1)
T1 sequence (P22732 1-501 H387F): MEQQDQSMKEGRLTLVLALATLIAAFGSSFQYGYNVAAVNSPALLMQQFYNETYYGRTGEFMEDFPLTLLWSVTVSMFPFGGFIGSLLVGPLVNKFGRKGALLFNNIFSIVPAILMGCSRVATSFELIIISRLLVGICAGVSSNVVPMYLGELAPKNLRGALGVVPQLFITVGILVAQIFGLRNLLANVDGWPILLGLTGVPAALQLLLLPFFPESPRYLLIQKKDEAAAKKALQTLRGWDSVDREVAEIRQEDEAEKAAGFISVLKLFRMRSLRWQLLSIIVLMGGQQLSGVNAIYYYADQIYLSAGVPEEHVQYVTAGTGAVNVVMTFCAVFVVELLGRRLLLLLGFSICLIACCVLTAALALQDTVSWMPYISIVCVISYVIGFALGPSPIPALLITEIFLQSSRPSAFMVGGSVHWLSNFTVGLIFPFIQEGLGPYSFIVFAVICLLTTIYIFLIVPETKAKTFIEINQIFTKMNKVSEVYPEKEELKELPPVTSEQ
Procedure: (§1) cDNAs of GLUT1, 3, 4 and 5 were purchased from Open Biosystems (GE Healthcare). cDNAs of GLUT2 was a gift from Prof. Graeme Bell at University of Chicago. Full length DNA was subcloned into pFastBac1 (Life Technologies) vector with a N-terminal hexahistidine tag. Bacmids were generated in DH10Bac E. coli cells (Life Technologies). Baculoviruses were produced using Cellfectin II Reagent and amplified in Sf21 insect cells (Life Technologies). Cells were maintained at 26° C., and P1 (10^6 pfu/mL) was collected from infected cells after 72 hours. SF21 cells were propagated in HyClone SFX-Insect media (GE Healthcare), supplemented with 5% fetal bovine serum (Biowest), 4.8 mM glutamine, antibiotics (100 units/mL Penicillin G and 100 μg/mL streptomycin sulfate) and amphotericin B (2.5 μg/mL). […]
(§2) For the entrance counterflow transport in proteoliposomes, the assay was started by the addition of 5 μL proteoliposomes solution (OD600 nm ˜30) to 200 μL, assay solution, containing 10 μM ^14C-radiolabeled glucose (for GLUT1 wild-type or F379H mutant and GLUT2-4) or fructose (for GLUT5 wild-type or H387F mutant and GLUT2) (Moravek Biochemicals) in 100 mM KPi buffer at pH 7.5. After one minute (or different specified time points when the time-dependent counter-flow transport activity was measured), the transport was stopped with ice-chilled quench buffer [0.1 M KPi (pH 5.5) and 0.1 M lithium chloride]. […]

[2] = biological target: T2, human GLUT2 (Homo sapiens, UniProt P11168); assay: Glucose or fructose entrance counter-flow transport in GLUT2 proteoliposomes; type: biochemical; details: 2 mM compound
T2 construct: Full length DNA was subcloned into pFastBac1 (Life Technologies) vector with a N-terminal hexahistidine tag; hexahistidine (N); made in house; host or cells: Sf21 insect cells (baculovirus, pFastBac1)
T2 sequence (P11168 1-524): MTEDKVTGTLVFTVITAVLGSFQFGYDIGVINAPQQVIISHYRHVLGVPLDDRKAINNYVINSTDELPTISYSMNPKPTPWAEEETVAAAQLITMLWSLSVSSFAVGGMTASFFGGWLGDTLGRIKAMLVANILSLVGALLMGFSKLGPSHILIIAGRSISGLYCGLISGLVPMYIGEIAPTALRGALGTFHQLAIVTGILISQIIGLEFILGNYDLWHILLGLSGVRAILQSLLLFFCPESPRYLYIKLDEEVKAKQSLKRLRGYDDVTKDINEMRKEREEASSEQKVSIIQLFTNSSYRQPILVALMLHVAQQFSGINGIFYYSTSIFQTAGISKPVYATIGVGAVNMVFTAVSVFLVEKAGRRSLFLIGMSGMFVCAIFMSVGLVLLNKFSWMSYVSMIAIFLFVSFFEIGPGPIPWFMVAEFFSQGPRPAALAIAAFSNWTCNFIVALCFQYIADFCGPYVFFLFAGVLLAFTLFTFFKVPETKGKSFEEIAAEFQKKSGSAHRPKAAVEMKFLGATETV
Procedure: as §1, §2

CS(=O)(=O)c1ccc(Nc2ccc3c(c2)OCO3)c([N+](=O)[O-])c1 [MSNBA, N-[4-(methylsulfonyl)-2-nitrophenyl]-1,3-benzodioxol-5-amine]
activity retained by GLUT5H387F [1]: 93%
effect on GLUT5H387F fructose transport [1]: largely unaffected; also recorded: almost unsusceptible
effect on GLUT2 fructose transport ([2]; fructose as substrate): did not affect; also recorded: did not influence
effect on GLUT2 glucose transport ([2]; glucose as substrate): did not influence; also recorded: did not affect
